Results published in US12514832B2, “Methods for using low-dose colchicine after myocardial infarction” (INSTITUT DE CARDIOLOGIE DE MONTREAL, priority 2019, dated 2026).
Where two headings read alike, the source gives them in different places.

Test system: rs6916345 (LINC01108/JARID2, chromosome 6); rs10128117 (SEPHS1, chromosome 10)
Conditions: for HR, gastrointestinal disorders / coef, gastrointestinal disorders / Coefficient, genetic association with gastrointestinal disorders / HR (hazard ratio), genetic association with gastrointestinal disorders: colchicine treatment arm
[1] = colchicine arm, males + females, on-treatment pgx population
[2] = rs535968 effect allele C vs T, males + females
[3] = rs615497 effect allele G vs A, males + females
[4] = rs825610 effect allele C vs T, males + females
[5] = rs2253619 chr 10, EA T vs NEA C
[6] = rs2253619 effect allele T vs C, males + females
[7] = rs2476986 effect allele T vs G, males + females
[8] = rs2783648 effect allele A vs T, males + females
[9] = rs7894075 effect allele C vs A, males + females
[10] = rs7901525 effect allele A vs C, males + females
[11] = rs7902331 effect allele T vs C, males + females
[12] = rs7916194 effect allele T vs A, males + females
[13] = rs7917549 effect allele A vs G, males + females
[14] = rs7919509 effect allele C vs T, males + females
[15] = rs9423893 effect allele A vs G, males + females
[16] = rs10128117 chr 10, EA A vs NEA T
[17] = rs10128117 effect allele A vs T, males + females
[18] = rs10906346 effect allele A vs G, males + females
[19] = rs11258319 effect allele T vs C, males + females
[20] = rs12210439 chr 6, EA A vs NEA G
[21] = rs41291319 effect allele A vs G, males + females
[22] = rs41291321 effect allele C vs G, males + females
[23] = rs58260827 effect allele CA vs C, males + females
[24] = rs61851591 chr 10, EA A vs NEA C
[25] = rs61851591 effect allele A vs C, males + females
[26] = rs61851592 chr 10, EA T vs NEA C
[27] = rs61851592 effect allele T vs C, males + females
[28] = rs61851593 chr 10, EA C vs NEA T
[29] = rs61851593 effect allele C vs T, males + females
[30] = rs61851598 effect allele A vs G, males + females
[31] = rs61851599 effect allele T vs C, males + females
[32] = rs70993041 chr 6, EA TAA vs NEA T
[33] = rs74795203 chr 10, EA G vs NEA A
[34] = rs74795203 effect allele G vs A, males + females
[35] = rs77006996 chr 10, EA T vs NEA C
[36] = rs77006996 effect allele T vs C, males + females
[37] = rs117874450 effect allele T vs C, males + females
[38] = rs552621122 effect allele A vs ATT, males + females

In the case of `COc1cc2c(c(OC)c1OC)-c1ccc(OC)c(=O)cc1[C@@H](NC(C)=O)CC2` [Colchicine, colchicine], the “Gastrointestinal disorders, hr per effect allele, rs857414 (G vs T)” value [1] is reported as 0.6, the “Gastrointestinal disorders, hr per effect allele, rs2327827 (G vs A)” value [1] is reported as 0.5 and the “Gastrointestinal disorders, hr per effect allele, rs4620126 (G vs A)” value [1] is reported as 0.6. The “Gastrointestinal disorders, hr per effect allele, rs6459368 (A vs G)” value [1] was 0.5, the “Gastrointestinal disorders, hr per effect allele, rs6903188 (G vs A)” value [1] was 0.6 and the “Gastrointestinal disorders, hr per effect allele, rs6918045 (T vs C)” value [1] was 0.6. For the same compound, the “Gastrointestinal disorders, hr per effect allele, rs6920905 (C vs T)” value [1] was 0.5, the “Gastrointestinal disorders, hr per effect allele, rs7747013 (G vs A)” value [1] was 0.5 and the “Gastrointestinal disorders, hr per effect allele, rs7751771 (C vs T)” value [1] was 0.5. The “Gastrointestinal disorders, hr per effect allele, rs7764937 (C vs G)” value [1] was 0.5, the “Gastrointestinal disorders, hr per effect allele, rs9349955 (T vs C)” value [1] was 0.5 and the “Gastrointestinal disorders, hr per effect allele, rs9358042 (T vs C)” value [1] was 0.6. The “Gastrointestinal disorders, hr per effect allele, rs9358044 (T vs A)” value [1] was 0.5, the “Gastrointestinal disorders, hr per effect allele, rs9370772 (T vs C)” value [1] was 0.6 and the “Gastrointestinal disorders, hr per effect allele, rs9382993 (C vs T)” value [1] was 0.5. The “Gastrointestinal disorders, hr per effect allele, rs9464702 (G vs A)” value [1] was 0.6, the “Gastrointestinal disorders, hr per effect allele, rs9476615 (T vs C)” value [1] was 0.6 and the “Gastrointestinal disorders, hr per effect allele, rs9476616 (G vs C)” value [1] was 0.5. For the same compound, the “Gastrointestinal disorders, hr per effect allele, rs12210439 (A vs G)” value [1] was 0.6, the “Gastrointestinal disorders, hr per effect allele, rs70993041 (TAA vs T)” value [1] was 0.5 and the “times more likely to have reported gastrointestinal disorders with colchicine than with placebo” value (genotype A/A at rs6916345) was 2.4 times. The “less likely to have reported gastrointestinal disorders with colchicine than with placebo” value (genotype G/G at rs6916345) was 57%, the “times more likely to have reported gastrointestinal disorders with colchicine than with placebo” value (genotype T/A at rs10128117) was 3.7 times and the “HR, gastrointestinal disorders” value [2] was 2.3. For the same compound, the “coef, gastrointestinal disorders” value [2] was 0.8496, the “HR, gastrointestinal disorders” value [3] was 2.4 and the “coef, gastrointestinal disorders” value [3] was 0.8683. The “HR, gastrointestinal disorders” value [4] was 2.4, the “coef, gastrointestinal disorders” value [4] was 0.8604 and the “Coefficient, genetic association with gastrointestinal disorders” value (shortened to “Coefficient, genetic association”) [5] was 0.921. For the same compound, the “HR (hazard ratio), genetic association with gastrointestinal disorders” value (shortened to “HR (hazard ratio), genetic association”) [5] was 2.51, the “HR, gastrointestinal disorders” value [6] was 2.5 and the “coef, gastrointestinal disorders” value [6] was 0.9205. The “Coefficient, genetic association” value (rs2327827 chr 6, EA G vs NEA A) was −0.620, the “HR (hazard ratio), genetic association” value (rs2327827 chr 6, EA G vs NEA A) was 0.54 and the “HR, gastrointestinal disorders” value [7] was 2.4. For the same compound, the “coef, gastrointestinal disorders” value [7] was 0.8717, the “HR, gastrointestinal disorders” value [8] was 2.4 and the “coef, gastrointestinal disorders” value [8] was 0.8625. The “Coefficient, genetic association” value (rs6459368 chr 6, EA A vs NEA G) was −0.602, the “HR (hazard ratio), genetic association” value (rs6459368 chr 6, EA A vs NEA G) was 0.55 and the “Coefficient, genetic association” value (rs6903188 chr 6, EA G vs NEA A) was −0.598. The “HR (hazard ratio), genetic association” value (rs6903188 chr 6, EA G vs NEA A) was 0.55, the “Coefficient, genetic association” value (rs6916345 chr 6, EA G vs NEA A) was −0.639 and the “HR (hazard ratio), genetic association” value (rs6916345 chr 6, EA G vs NEA A) was 0.53. The “Coefficient, genetic association” value (rs6918045 chr 6, EA T vs NEA C) was −0.598, the “HR (hazard ratio), genetic association” value (rs6918045 chr 6, EA T vs NEA C) was 0.55 and the “Coefficient, genetic association” value (rs6920905 chr 6, EA C vs NEA T) was −0.628. For the same compound, the “HR (hazard ratio), genetic association” value (rs6920905 chr 6, EA C vs NEA T) was 0.53, the “Coefficient, genetic association” value (rs7747013 chr 6, EA G vs NEA A) was −0.600 and the “HR (hazard ratio), genetic association” value (rs7747013 chr 6, EA G vs NEA A) was 0.55. For the same compound, the “Coefficient, genetic association” value (rs7751771 chr 6, EA C vs NEA T) was −0.598, the “HR (hazard ratio), genetic association” value (rs7751771 chr 6, EA C vs NEA T) was 0.55 and the “Coefficient, genetic association” value (rs7764937 chr 6, EA C vs NEA G) was −0.599. The “HR (hazard ratio), genetic association” value (rs7764937 chr 6, EA C vs NEA G) was 0.55, the “HR, gastrointestinal disorders” value [9] was 2.4 and the “coef, gastrointestinal disorders” value [9] was 0.8903. The “HR, gastrointestinal disorders” value [10] was 2.4, the “coef, gastrointestinal disorders” value [10] was 0.8865 and the “HR, gastrointestinal disorders” value [11] was 2.4. For the same compound, the “coef, gastrointestinal disorders” value [11] was 0.8596, the “HR, gastrointestinal disorders” value [12] was 2.5 and the “coef, gastrointestinal disorders” value [12] was 0.9034. The “HR, gastrointestinal disorders” value [13] was 2.4, the “coef, gastrointestinal disorders” value [13] was 0.8864 and the “HR, gastrointestinal disorders” value [14] was 2.5. The “coef, gastrointestinal disorders” value [14] was 0.9034, the “Coefficient, genetic association” value (rs9349955 chr 6, EA T vs NEA C) was −0.633 and the “HR (hazard ratio), genetic association” value (rs9349955 chr 6, EA T vs NEA C) was 0.53. The “Coefficient, genetic association” value (rs9358044 chr 6, EA T vs NEA A) was −0.610, the “HR (hazard ratio), genetic association” value (rs9358044 chr 6, EA T vs NEA A) was 0.54 and the “Coefficient, genetic association” value (rs9382993 chr 6, EA C vs NEA T) was −0.636. The “HR (hazard ratio), genetic association” value (rs9382993 chr 6, EA C vs NEA T) was 0.53, the “HR, gastrointestinal disorders” value [15] was 2.4 and the “coef, gastrointestinal disorders” value [15] was 0.8599. For the same compound, the “Coefficient, genetic association” value (rs9476616 chr 6, EA G vs NEA C) was −0.607, the “HR (hazard ratio), genetic association” value (rs9476616 chr 6, EA G vs NEA C) was 0.55 and the “Coefficient, genetic association” value [16] was 0.934. The “HR (hazard ratio), genetic association” value [16] was 2.55, the “HR, gastrointestinal disorders” value [17] was 2.5 and the “coef, gastrointestinal disorders” value [17] was 0.9342. The “HR, gastrointestinal disorders” value [18] was 2.5, the “coef, gastrointestinal disorders” value [18] was 0.902 and the “HR, gastrointestinal disorders” value [19] was 2.4. For the same compound, the “coef, gastrointestinal disorders” value [19] was 0.8718, the “Coefficient, genetic association” value [20] was −0.594 and the “HR (hazard ratio), genetic association” value [20] was 0.55. The “HR, gastrointestinal disorders” value [21] was 2.4, the “coef, gastrointestinal disorders” value [21] was 0.8843 and the “HR, gastrointestinal disorders” value [22] was 2.4. The “coef, gastrointestinal disorders” value [22] was 0.8594, the “HR, gastrointestinal disorders” value [23] was 2.4 and the “coef, gastrointestinal disorders” value [23] was 0.8895. The “Coefficient, genetic association” value [24] was 0.917, the “HR (hazard ratio), genetic association” value [24] was 2.50 and the “HR, gastrointestinal disorders” value [25] was 2.5. The “coef, gastrointestinal disorders” value [25] was 0.9168, the “Coefficient, genetic association” value [26] was 0.921 and the “HR (hazard ratio), genetic association” value [26] was 2.51. The “HR, gastrointestinal disorders” value [27] was 2.5, the “coef, gastrointestinal disorders” value [27] was 0.9206 and the “Coefficient, genetic association” value [28] was 0.921. The “HR (hazard ratio), genetic association” value [28] was 2.51, the “HR, gastrointestinal disorders” value [29] was 2.5 and the “coef, gastrointestinal disorders” value [29] was 0.9206. For the same compound, the “HR, gastrointestinal disorders” value [30] was 2.4, the “coef, gastrointestinal disorders” value [30] was 0.8657 and the “HR, gastrointestinal disorders” value [31] was 2.4. For the same compound, the “coef, gastrointestinal disorders” value [31] was 0.8665, the “Coefficient, genetic association” value [32] was −0.632 and the “HR (hazard ratio), genetic association” value [32] was 0.53. For the same compound, the “Coefficient, genetic association” value [33] was 0.921, the “HR (hazard ratio), genetic association” value [33] was 2.51 and the “HR, gastrointestinal disorders” value [34] was 2.5. For the same compound, the “coef, gastrointestinal disorders” value [34] was 0.9207, the “Coefficient, genetic association” value [35] was 0.917 and the “HR (hazard ratio), genetic association” value [35] was 2.50. The “HR, gastrointestinal disorders” value [36] was 2.5, the “coef, gastrointestinal disorders” value [36] was 0.9167 and the “HR, gastrointestinal disorders” value [37] was 2.4. The “coef, gastrointestinal disorders” value [37] was 0.8656, the “HR, gastrointestinal disorders” value [38] was 2.4 and the “coef, gastrointestinal disorders” value [38] was 0.8864.
